In paper PMC3880013, “Toward an Understanding of Agonist Binding to Human Orexin-1 and Orexin-2 Receptors with G-Protein-Coupled Receptor Modeling and Site-Directed Mutagenesis” (Biochemistry, 2013):
Like-named read-outs stand apart in the source and are kept apart here. Marks after values point to notes of the source that are not given here. Where no end group is shown, it is not given here.

What was measured:
hOX1 Q179A = test: Calcium flux assay, CHO-K1 cells stably expressing Orexin receptor mutant; type: cell-based, human; conditions: hOX1 Q179A (4.60) vs wild type, CHO-K1, Fluo-4AM, this work
Procedure: (§1) A combination of overlap and mismatch polymerase chain reaction (PCR) was used to introduce mutations into the corresponding Orexin-1 and Orexin-2 cDNAs as described by us previously.[62] Each mutation was made via the generation of two overlapping PCR fragments with PfuUltra II Fusion HS DNA Polymerase (Strategene). The two products were extracted, and a second round of PCR was performed via combination of both fragments with 5′ and 3′ gene specific primers (containing BamHI and NotI restriction sites, respectively). The resulting gel-purified products were then cloned into expression vector pFB-Neo for subsequent generation of stable cell lines. Constructs were confirmed via sequencing. Each verified cDNA was subsequently used to generate single, stably expressing clones in the CHO-K1 cell line.
(§2) Standard calcium flux assays were used to assess the functionality of each OX receptor mutant. Each CHO-K1 Orexin mutant was seeded into tissue culture-treated, 384-well, black clear-bottom plates (CellBind Corning 7086), at a density of 7500 cells/well in culture medium and maintained in an incubator (5% CO2 at 37 °C) overnight. The cell medium was removed, and the cells were incubated in 20 μL of assay buffer (4 μM Fluo-4AM in HBSS with 0.1% BSA) for 90 min at 37 °C. After incubation, the dye was removed and 45 μL of fresh buffer, without dye, was applied. Antagonists (5 μL) were applied, and after incubation for an additional 20 min at 37 °C, 20 μL of receptor specific agonists was applied and the calcium flux monitored using a Flex Station (Molecular Devices) over a period of 1 min. In all cases, the EC80 specific for the individual mutant as determined in previous experiments was reported.

hOX1 Y311F = test: as above; type: cell-based, human; conditions: hOX1 Y311F (6.48) relative to wild type, CHO-K1, Fluo-4AM, this work
Procedure: as §1, §2

hOX2 F227W = test: as above; type: cell-based, human; conditions: hOX2 F227W (5.42) relative to wild type, CHO-K1, Fluo-4AM, this work
Procedure: as §1, §2

hOX2 Q134A = test: as above; type: cell-based, human; conditions: hOX2 Q134A (3.32) relative to wild type, CHO-K1, Fluo-4AM, this work
Procedure: as §1, §2

hOX2 Q187A = test: as above; type: cell-based, human; conditions: hOX2 Q187A (4.60) relative to wild type, CHO-K1, Fluo-4AM, this work
Procedure: as §1, §2

hOX1 F219A = hOX1 F219A (5.42) relative to wild type, [Ca2+]i response, ref 37 Malherbe et al., cited from earlier work
Description: Other mutations had no major effect on efficacy. || We also explored the role of the conserved F^5.42. […] In the case of OX1, F^5.42 interacts with H26 of OxA that, based on the SDM experiments, has an only moderate impact on potency (see Figure 6A). This is in contrast to OX2 in which F^5.42 interacts with key residue I30 (see Figure 6B). Mutation of I30 of OxA to alanine complet ...

hOX1 H344A = conditions: cited from earlier work; for ratio EC50(mut)/EC50(WT): hOX1 H344A (7.39) relative to wild type, [Ca2+]i response, ref 37 Malherbe et al.
Description: Other mutations had no major effect on efficacy. || An additional residue that plays a key role in OX receptor agonist binding and activation by Orexin peptides is H^7.39. […] We observed that in OX1, H^7.39 interacts with residues L16 and L20 of helix 1 of OxA (see Figure 6A). […] On the other hand, in OX2, H^7.39 interacts with L20 and not with L16 (see Figure 6B), and ...

hOX1 A127T = hOX1 A127T (3.33) relative to wild type; [Ca2+]i response; ref 37 Malherbe et al.; cited from earlier work
Description: (§3) Table 1 Comparison of the Effects of Different Mutations in hOX1 and hOX2 on the Binding Potencies of Orexin-A and Orexin-B ^a | column: hOX1 / ratio ^b of Orexin-A

hOX1 Q126A = hOX1 Q126A (3.32) relative to wild type; [Ca2+]i response; ref 37 Malherbe et al.; cited from earlier work
Description: as §3

hOX1 Y348A = hOX1 Y348A (7.43) relative to wild type; [Ca2+]i response; ref 37 Malherbe et al.; cited from earlier work
Description: as §3

hOX2 T111A = tested on: hOX2 T111A; design: method as in earlier work; conditions: hOX2 T111A (2.61) relative to wild type, [Ca2+]i response, ref 37 Malherbe et al., cited from earlier work
hOX2 F227A = conditions: cited from earlier work; for ratio EC50(mut)/EC50(WT): hOX2 F227A (5.42) relative to wild type, [Ca2+]i response, ref 37 Malherbe et al.
Description: In the case of OX1, F^5.42 interacts with H26 of OxA that, based on the SDM experiments, has an only moderate impact on potency (see Figure 6A). This is in contrast to OX2 in which F^5.42 interacts with key residue I30 (see Figure 6B). Mutation of I30 of OxA to alanine complet ...

hOX2 Y317A = conditions: cited from earlier work; for ratio EC50(mut)/EC50(WT): hOX2 Y317A (6.48) relative to wild type, [Ca2+]i response, ref 37 Malherbe et al.
Description: D211^45.51 is in the proximity of L19. L19 and L20 form hydrophobic interactions with W214^45.54 and H350^7.39, respectively. […] In the case of OX2, Y223^5.38 forms an interaction with H26 of OxA. F227^5.42 forms a ...

Orexin-A (QPLPDCCRQKTCSCRLYELLHGAGNHAAGILTL; ends and bridges not checked; cysteine pairing not given here; UniProt O43612 34-66, looked up) [hypothalamic neuropeptide, 33 amino acids, two intramolecular disulfide bonds C6-C12 and C7-C14; natural OX1/OX2 agonist]
fold improvement in potency relative to wild type (hOX1 Q179A): 17.8 fold improvement
ratio EC50(mut)/EC50(WT) (hOX1 Y311F): 1.6 ^d fold
ratio EC50(mut)/EC50(WT) (hOX2 F227W): 84.2 ^d fold
ratio EC50(mut)/EC50(WT) (hOX2 Q134A): 15.1 fold
ratio EC50(mut)/EC50(WT) (hOX2 Q187A): 1.3 ^d fold
ratio EC50(mut)/EC50(WT) (hOX1 F219A): 139.6 ^c fold
ratio EC50(mut)/EC50(WT) (hOX1 F219A; listed as OxA): 139.6 fold
decrease in Emax (hOX1 H344A; OX1 H7.39 (H344) mutated to alanine): 64.5%
ratio EC50(mut)/EC50(WT) (hOX1 H344A): 241.1 ^c fold
ratio EC50(mut)/EC50(WT) (hOX1 H344A; listed as OxA): 241.1 fold
ratio EC50(mut)/EC50(WT) (hOX1 A127T): 1.8 ^c fold
ratio EC50(mut)/EC50(WT) (hOX1 Q126A): 2.4 ^c fold
ratio EC50(mut)/EC50(WT) (hOX1 Y348A): 8.7 ^c fold
ratio EC50(mut)/EC50(WT) (hOX2 T111A): 243.5 ^c fold
ratio EC50(mut)/EC50(WT) (hOX2 T111A; listed as OxA): 243.5 fold
efficacy (reduced to) (hOX2 F227A; hOX2 F5.42 (F227) mutated to alanine): 64.3%
ratio EC50(mut)/EC50(WT) (hOX2 F227A): 240.3 ^c fold
ratio EC50(mut)/EC50(WT) (hOX2 F227A; listed as OxA): 240.3 fold
ratio EC50(mut)/EC50(WT) (hOX2 Y317A): 17.7 ^c fold
ratio EC50(mut)/EC50(WT) (hOX2 Y317A; listed as OxA): 17.7 fold
relative Emax (decreases to) (hOX2 Y317A; hOX2 Y317A compared with WT): 49.6%
